Reference: patent US20240327412A1, “FACTOR XIIA INHIBITORS” (KALVISTA PHARMACEUTICALS LIMITED, priority 2021, published 2024)

Molecular target: T1, Human Factor XIIa (Homo sapiens, UniProt P00748)
T1 construct: Proteolytic cleavage of FXII to heavy and light chains of FXIIa dramatically increases catalytic activity; purchased Enzyme Research Laboratories
T1 sequence (P00748 373-615 limits assumed): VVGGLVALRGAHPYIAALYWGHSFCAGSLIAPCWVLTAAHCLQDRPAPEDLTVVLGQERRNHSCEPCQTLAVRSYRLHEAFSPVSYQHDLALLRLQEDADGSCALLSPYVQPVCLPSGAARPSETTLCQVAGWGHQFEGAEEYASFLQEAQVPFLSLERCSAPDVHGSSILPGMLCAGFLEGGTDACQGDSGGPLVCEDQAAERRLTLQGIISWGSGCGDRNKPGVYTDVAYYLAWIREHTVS
T1 sequence (P00748 20-372 partner limits assumed): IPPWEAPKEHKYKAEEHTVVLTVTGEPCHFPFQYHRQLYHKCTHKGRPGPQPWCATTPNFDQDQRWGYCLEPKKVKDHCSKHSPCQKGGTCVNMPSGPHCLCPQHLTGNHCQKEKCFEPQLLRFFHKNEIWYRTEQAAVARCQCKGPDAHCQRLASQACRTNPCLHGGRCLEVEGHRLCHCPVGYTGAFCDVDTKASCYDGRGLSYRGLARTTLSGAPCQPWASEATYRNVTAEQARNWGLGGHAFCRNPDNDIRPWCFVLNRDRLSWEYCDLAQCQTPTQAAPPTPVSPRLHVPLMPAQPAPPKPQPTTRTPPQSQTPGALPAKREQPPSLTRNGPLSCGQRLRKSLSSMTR
Assay: Determination of FXIIa inhibition (fluorogenic substrate H-DPro-Phe-Arg-AFC, IC50 assay)
Format: biochemical
Settings: substrate at Km concentration, 25° C.; category scale; read-out: Human FXII IC50 (nm)
Description: In vitro inhibition of Factor XIIa was determined using an IC50 assay based on standard literature methods (see e.g Baeriswyl et al., ACS Chem. Biol., 2015, 10 (8) 1861; Bouckaert et al., European Journal of Medicinal Chemistry 110 (2016) 181). Human Factor XIIa (Enzyme Research Laboratories) was incubated at 25° C. with the fluorogenic substrate H-DPro-Phe-Arg-AFC (Peptide Protein Science) and various concentrations of the test compound. Protease activity was measured by monitoring the accumulation of liberated fluorescence from the substrate over 5 min at 25° C. The linear rate of fluorescence increase per minute was expressed as percentage (%) activity. The Km for the cleavage of the substrate by FXIIa was determined by standard transformation of the Michaelis-Menten equation. The compound inhibitor assays were performed at substrate Km concentration. IC50 values were calculated as the concentration of inhibitor giving 50% inhibition (IC50) of the uninhibited enzyme activity (100%).

| Structure (SMILES) | IC50 |
| --- | --- |
| Nc1nccc2c(NCC34CC(COc5ccc6nncn6n5)(CO3)C4)cccc12 [Example 6638, N5-((4-(([1,2,4]triazolo[4,3-b]pyridazin-6-yloxy)methyl)-2-oxabicyclo[2.1.1]hexan-1-yl)methyl)isoquinoline-1,5-diamine] | 1 to 3 µM |
| Cc1nccc(OCC23CCOC(CNc4cccc5c(N)nccc45)(C2)C3)n1 [Example 10974, N5-((5-(((2-methylpyrimidin-4-yl)oxy)methyl)-2-oxabicyclo[3.1.1]heptan-1-yl)methyl)isoquinoline-1,5-diamine] | 3 to 10 µM |
| Cn1ccc(OCC23CN(C(=O)Cc4ccc5occc5c4)C(CNc4cccc5c(N)nccc45)(C2)C3)cc1=O [Example 12034, 4-((1-(((1-Aminoisoquinolin-5-yl)amino)methyl)-2-(2-(benzofuran-5-yl)acetyl)-2-azabicyclo[2.1.1]hexan-4-yl)methoxy)-1-methylpyridin-2(1H)-one] | 0.01 to 0.1 µM |
| Nc1nccc2c(NCC34CC(COc5ccc6c(c5)C(=O)NC6)(CCO3)C4)cccc12 [Example 10941, 6-((1-(((1-aminoisoquinolin-5-yl)amino)methyl)-2-oxabicyclo[3.1.1]heptan-5-yl)methoxy)isoindolin-1-one] | 0.3 to 1 µM |
| Cn1ccc(OCC23CC(CNc4cccc5c(N)nccc45)(CN2c2nc4ccccc4o2)C3)cc1=O [Example 13018, 4-[[4-[[(1-aminoisoquinolin-5-yl)amino]methyl]-2-(1,3-benzoxazol-2-yl)-2-azabicyclo[2.1.1]hexan-1-yl]methoxy]-1-methylpyridin-2-one] | 0.3 to 1 µM |
| Cc1cnc2cc(OCC34CCOC(CNc5cccc6c(N)nccc56)(C3)C4)ccn12 [Example 10930, N5-((5-(((3-methylimidazo[1,2-a]pyridin-7-yl)oxy)methyl)-2-oxabicyclo[3.1.1]heptan-1-yl)methyl)isoquinoline-1,5-diamine] | 0.01 to 0.1 µM |
| Cn1nncc1OCC12CCOC(CNc3cccc4c(N)nccc34)(C1)C2 [Example 10946, N5-((5-(((1-methyl-1H-1,2,3-triazol-5-yl)oxy)methyl)-2-oxabicyclo[3.1.1]heptan-1-yl)methyl)isoquinoline-1,5-diamine] | 3 to 10 µM |
| Cn1ccc(OCC23CN(C(=O)NCc4ccccc4F)C(CNc4cccc5c(N)nccc45)(C2)C3)cc1=O [Example 12058, 1-(((1-aminoisoquinolin-5-yl)amino)methyl)-N-(2-fluorobenzyl)-4-(((1-methyl-2-oxo-1,2-dihydropyridin-4-yl)oxy)methyl)-2-azabicyclo[2.1.1]hexane-2-carboxamide] | 0.01 to 0.1 µM |
| Cc1cccc(OCC23CCOC(CNc4cccc5c(N)nccc45)(C2)C3)n1 [Example 10957, N5-((5-(((6-methylpyridin-2-yl)oxy)methyl)-2-oxabicyclo[3.1.1]heptan-1-yl)methyl)isoquinoline-1,5-diamine] | 3 to 10 µM |
| Nc1nccc2c(NCC34CC(COc5cc6nccn6cn5)(CO3)C4)cccc12 [Example 6623, N5-((4-((imidazo[1,2-c]pyrimidin-7-yloxy)methyl)-2-oxabicyclo[2.1.1]hexan-1-yl)methyl)isoquinoline-1,5-diamine] | 3 to 10 µM |
| Cc1cnc2ccc(OCC34COC(CNc5ccccc5CC(F)(F)F)(C3)C4)cn12 [Example 6659, N-((4-(((3-methylimidazo[1,2-a]pyridin-6-yl)oxy)methyl)-2-oxabicyclo[2.1.1]hexan-1-yl)methyl)-2-(2,2,2-trifluoroethyl)aniline] | 40 to 100 µM |
| Nc1nccc2c(NCC34CC(COc5ccc6ncc(F)n6c5)(CO3)C4)cccc12 [Example 6625, N5-((4-(((3-fluoroimidazo[1,2-a]pyridin-6-yl)oxy)methyl)-2-oxabicyclo[2.1.1]hexan-1-yl)methyl)isoquinoline-1,5-diamine] | 0.3 to 1 µM |
| Cc1cc(OCC23CN(C(=O)Cc4ccccc4)C(CNc4cccc5c(N)nccc45)(C2)C3)cc(=O)n1C [Example 12039, 4-((1-(((1-aminoisoquinolin-5-yl)amino)methyl)-2-(2-phenylacetyl)-2-azabicyclo[2.1.1]hexan-4-yl)methoxy)-1,6-dimethylpyridin-2(1H)-one] | 0.01 to 0.1 µM |
| Cn1ccc(OCC23CN(c4ccncc4)C(CNc4cccc5c(N)nccc45)(C2)C3)cc1=O [Example 12065, 4-((1-(((1-aminoisoquinolin-5-yl)amino)methyl)-2-(pyridin-4-yl)-2-azabicyclo[2.1.1]hexan-4-yl)methoxy)-1-methylpyridin-2(1H)-one] | 0.001 to 0.01 µM |
| CC1(C)NC(=O)c2ccc(OCC34COC(CNc5cccc6c(N)nccc56)(C3)C4)cc21 [Example 6650, 5-((1-(((1-aminoisoquinolin-5-yl)amino)methyl)-2-oxabicyclo[2.1.1]hexan-4-yl)methoxy)-3,3-dimethylisoindolin-1-one] | 0.1 to 0.3 µM |
| Cn1ccc(OCC23CC(CNc4cccc5c(N)nccc45)(CN2C(=O)OC(C)(C)C)C3)cc1=O [Example 13005, tert-butyl 4-(((1-aminoisoquinolin-5-yl)amino)methyl)-1-(((1-methyl-2-oxo-1,2-dihydropyridin-4-yl)oxy)methyl)-2-azabicyclo[2.1.1]hexane-2-carboxylate] | 0.1 to 0.3 µM |

Other lines, results leading:

| IC50 | Structure (SMILES) |
| --- | --- |
| 10 to 40 µM | Cc1cnc2ccc(OCC34COC(CNc5cccnc5)(C3)C4)cn12 [Example 6661, N-((4-(((3-methylimidazo[1,2-a]pyridin-6-yl)oxy)methyl)-2-oxabicyclo[2.1.1]hexan-1-yl)methyl)pyridin-3-amine] |
| 10 to 40 µM | Nc1nccc2c(NCC34CC(NC(=O)c5ccc6nnc(C(F)F)n6c5)(C3)C4)cccc12 [Example 1132, N-(3-(((1-aminoisoquinolin-5-yl)amino)methyl)bicyclo[1.1.1]pentan-1-yl)-3-(difluoromethyl)-[1,2,4]triazolo[4,3-a]pyridine-6-carboxamide] |
| 0.001 to 0.01 µM | Cn1ccc(OCC23CN(c4nc5ccccc5o4)C(CNc4cccc5c(N)nccc45)(C2)C3)cc1=O [Example 12057, 4-((1-(((1-Aminoisoquinolin-5-yl)amino)methyl)-2-(benzo[d]oxazol-2-yl)-2-azabicyclo[2.1.1]hexan-4-yl)methoxy)-1-methylpyridin-2(1H)-one] |
| 0.001 to 0.01 µM | Cn1ccc(OCC23CN(c4ncc(-c5ccccc5)cn4)C(CNc4cccc5c(N)nccc45)(C2)C3)cc1=O [Example 12060, 4-((1-(((1-Aminoisoquinolin-5-yl)amino)methyl)-2-(5-phenylpyrimidin-2-yl)-2-azabicyclo[2.1.1]hexan-4-yl)methoxy)-1-methylpyridin-2(1H)-one] |
| 3 to 10 µM | COc1ccncc1OCC12CCOC(CNc3cccc4c(N)nccc34)(C1)C2 [Example 10954, N5-((5-(((4-methoxypyridin-3-yl)oxy)methyl)-2-oxabicyclo[3.1.1]heptan-1-yl)methyl)isoquinoline-1,5-diamine] |
| 0.3 to 1 µM | CC(C)n1ccc(OCC23CCOC(CNc4cccc5c(N)nccc45)(C2)C3)cc1=O [Example 10934, 4-((1-(((1-aminoisoquinolin-5-yl)amino)methyl)-2-oxabicyclo[3.1.1]heptan-5-yl)methoxy)-1-isopropylpyridin-2(1H)-one] |
| 0.1 to 0.3 µM | Cc1cc(OCC23CCOC(CNc4cccc5c(N)nccc45)(C2)C3)ccn1 [Example 10953, N5-((5-(((2-methylpyridin-4-yl)oxy)methyl)-2-oxabicyclo[3.1.1]heptan-1-yl)methyl)isoquinoline-1,5-diamine] |
| 10 to 40 µM | Nc1nccc2c(NCC34CC(CN5C(=O)c6ccc(O)cc6C5=O)(CO3)C4)cccc12 [Example 6635, 2-((1-(((1-aminoisoquinolin-5-yl)amino)methyl)-2-oxabicyclo[2.1.1]hexan-4-yl)methyl)-5-hydroxyisoindoline-1,3-dione] |
| 0.01 to 0.1 µM | COc1ccc(CNC(=O)N2CC3(COc4ccn(C)c(=O)c4)CC2(CNc2cccc4c(N)nccc24)C3)cc1 [Example 12062, 1-(((1-aminoisoquinolin-5-yl)amino)methyl)-N-(4-methoxybenzyl)-4-(((1-methyl-2-oxo-1,2-dihydropyridin-4-yl)oxy)methyl)-2-azabicyclo[2.1.1]hexane-2-carboxamide] |
| 0.01 to 0.1 µM | Cn1ccc(OCC23CN(C(=O)OCc4ccccn4)C(CNc4cccc5c(N)nccc45)(C2)C3)cc1=O [Example 12021, pyridin-2-ylmethyl 1-(((1-aminoisoquinolin-5-yl)amino)methyl)-4-(((1-methyl-2-oxo-1,2-dihydropyridin-4-yl)oxy)methyl)-2-azabicyclo[2.1.1]hexane-2-carboxylate] |
